Experimental findings from ChEMBL document CHEMBL3091428, “Synthesis and initial biological evaluation of substituted 1-phenylamino-2-thio-4,5-dimethyl-1H-imidazole derivatives” (Bioorg Med Chem Lett, 2013) are described below.

The test system of data set [1] is M14. Kind of data set: Cytotoxicity against human M14 cells assessed as cell growth after 48 hrs by SRB assay relative to control. It is filed as functional.
Data set [2] deals with Escherichia coli. Kind of data set: Antimicrobial activity against Escherichia coli ATCC 35218 after 24 hrs by broth microdilution method. It is filed as functional. To be noted: ATCC 35218, 24 h. For orientation: In broth dilution the organism is exposed to a series of concentrations in liquid medium.
For data set [3], the system named is SF-268. Kind of data set: Cytotoxicity against human SF268 cells assessed as cell growth after 48 hrs by SRB assay relative to control. It is filed as functional.
In data set [4] the test system is HCT-116. The experiment in a line: Cytotoxicity against human HCT116 cells assessed as cell growth after 48 hrs by SRB assay relative to control. It is filed as functional. On the technique in general: The SRB assay estimates cell density from bound dye.
Data set [5] deals with 786-0. The experiment in a line: Cytotoxicity against human 786-0 cells assessed as cell growth after 48 hrs by SRB assay relative to control. It is filed as functional.
Data set [6] deals with Artemia salina. The experiment in a line: Toxicity in brine shrimp larvae assessed as mortality at 50 ug/ml after 24 hrs. It is filed as organism-based. To be noted: in vivo.
In data set [7] the test system is SK-MEL-28. Kind of data set: Cytotoxicity against human SK-MEL-28 cells assessed as cell growth after 48 hrs by SRB assay relative to control. It is filed as functional.
Data set [8] has as its system HOP-62. The experiment in a line: Cytotoxicity against human HOP62 cells assessed as cell growth after 48 hrs by SRB assay relative to control. It is filed as functional.
Data set [9] relates to A498. The experiment in a line: Cytotoxicity against human A498 cells assessed as cell growth after 48 hrs by SRB assay relative to control. It is filed as functional.
Data set [10] concerns HCT-15. Kind of data set: Cytotoxicity against human HCT15 cells assessed as cell growth after 48 hrs by SRB assay relative to control. It is filed as functional.
Data set [11] concerns SK-OV-3. Kind of data set: Cytotoxicity against human SKOV3 cells assessed as cell growth after 48 hrs by SRB assay relative to control. It is filed as functional.
Data set [12] deals with Listeria monocytogenes. The experiment in a line: Antimicrobial activity against Listeria monocytogenes ATCC 19115 after 24 hrs by broth microdilution method. To be noted: ATCC 19115, 24 h. It is filed as functional.
For data set [13], the system named is MOLT-4. The experiment in a line: Cytotoxicity against human MOLT4 cells assessed as cell growth after 48 hrs by SRB assay relative to control. It is filed as functional.
Data set [14] concerns NCI-H460. The experiment in a line: Cytotoxicity against human NCI-H460 cells assessed as cell growth after 48 hrs by SRB assay relative to control. It is filed as functional.
The subject of data set [15] is U-251. The experiment in a line: Cytotoxicity against human U251 cells assessed as cell growth after 48 hrs by SRB assay relative to control. It is filed as functional.
In data set [16] the test system is Artemia salina. Kind of data set: Toxicity in brine shrimp larvae assessed as mortality at 100 ug/ml after 24 hrs. It is filed as organism-based. To be noted: in vivo.
Data set [17] relates to Pichia kudriavzevii. The experiment in a line: Antimicrobial activity against Candida krusei ATCC 6258 after 24 hrs by broth microdilution method. It is filed as functional. The following applies: ATCC 6258, 24 h.
Data set [18] concerns LOX IMVI. Kind of data set: Cytotoxicity against human LOXIMVI cells assessed as cell growth after 48 hrs by SRB assay relative to control. It is filed as functional.
The test system of data set [19] is A549. The experiment in a line: Cytotoxicity against human A549 cells assessed as cell growth after 48 hrs by SRB assay relative to control. It is filed as functional.
Data set [20] is described as follows: Cytotoxicity against human Hs578T cells assessed as cell growth after 48 hrs by SRB assay relative to control. It is filed as functional, Hs-578T.
The test system of data set [21] is CCRF-CEM. The experiment in a line: Cytotoxicity against human CCRF-CEM cells assessed as cell growth after 48 hrs by SRB assay relative to control. It is filed as functional.
Data set [22] is described as follows: Toxicity in brine shrimp larvae assessed as mortality after 24 hrs. To be noted: artemia salina, in vivo. It is filed as organism-based.
The test system of data set [23] is MDA-MB-435. Kind of data set: Cytotoxicity against human MDA-MB-435 cells assessed as cell growth after 48 hrs by SRB assay relative to control. It is filed as functional.

≈ marks a conversion by molar mass, not a printed value.

A word on the MIC: it is the smallest concentration in the dilution series that meets the test's criterion for growth inhibition. Lower therefore signals greater potency. As a reminder, the LC50 is the concentration that kills 50% of the test population.

As for `Cc1nc(SCC(=O)c2ccccc2)n(Nc2ccccc2)c1C`, the Activity is 101.1% in data set [1]; 101.9% in data set [3]; 86.93% in data set [4]; 106.4% in [5]; “Non-toxic” in data set [6]; 110.7% in data set [7]. The Activity in [8] was 97.72%; in [9] it was 91.12%; in data set [10], 99.3%; in data set [11], 97.79%; in data set [13], 100.2%; in [14], 104.4%. Moreover, the Activity in data set [15] is 97.26%; in [16] it was “Non-toxic”; in data set [18] it was 102.1%; in data set [19] it was 99.16%; in data set [20] it was 108%; in data set [21] it was 90.27%. Further, the Activity in [23] came to 97.36%. Moreover, the MIC came to 800 µg/mL (≈ 2370 µM) in data set [2], 800 µg/mL (≈ 2370 µM) in data set [12] and 400 µg/mL (≈ 1190 µM) in data set [17]. Further, the LC50 at 24 h in data set [22] was over 1600 µg/mL.
Consider `COc1ccc(C(=O)CSc2nc(C)c(C)n2Nc2ccccc2)cc1`, for which the Activity in data set [1] worked out at 91.19%; in data set [3] it was 104.5%; in [4], 96.71%; in data set [5], 90.03%; in data set [7] it was 113.1%; in data set [8], 100.7%. Further, the Activity is 90.87% in data set [9]; 88.63% in data set [10]; 93.26% in data set [11]; 89.96% in data set [13]; 96.54% in [14]; 93.77% in data set [15]. Moreover, the Activity is given as 104.8% in data set [18]; 97.35% in [19]; 107.2% in [20]; 89.68% in data set [21]; 95.25% in data set [23]. Moreover, the MIC in data set [2], in data set [12] and in data set [17] was 800 µg/mL (≈ 2180 µM) in each case.
As for `Cc1nc(SCC(=O)c2ccc(Cl)cc2)n(Nc2ccccc2)c1C`, the Activity in [1] turned out to be 107.4%; in data set [3], 103.9%; in [4], 90.7%; in [5], 97.67%; in data set [7], 108.7%; in data set [8] it was 101.2%. In addition, the Activity is recorded as 82.14% in [9]; 92.65% in [10]; 102.4% in data set [11]; 87.31% in [13]; 98.85% in data set [14]; 90.68% in [15]. In addition, the Activity is 101.4% in data set [18]; 86.67% in [19]; 96.61% in data set [20]; 81.64% in data set [21]; 99.36% in [23]. Also, the values for the MIC in [2], in data set [12] and in data set [17] were 400 µg/mL (≈ 1080 µM), 400 µg/mL (≈ 1080 µM) and 200 µg/mL (≈ 538 µM), respectively.
